Earlier results, collected in patent publication US8481490B2, “Method of reducing plasma amylase and/or plasma lipase in patients with pancreatitis” (Amylin Pharmaceuticals, LLC, priority 2010, dated 2013).

Test system: diabetic transgenic HIP rats
Conditions: one rat with histological features of acute pancreatitis

For N[C@@H](CC(=O)N1CCn2c(nnc2C(F)(F)F)C1)Cc1cc(F)c(F)cc1F [sitagliptin], the “ductal cell turnover and metaplasia” value is listed as “increased ductal cell turnover and metaplasia”.
